# Reference: US9833497B2, “Human originated EGF domain proteins and use of the same” (CHENGDU SOURCEBIO LIMITED-LIABILITY COMPANY, priority 2013, dated 2017)
# What was measured:
# Assay type in all cases: cell-based
# E. coli DH5α = test: Antibacterial activity: MIC and growth curve against E. coli DH5α in 96-well plate; conditions: minimal inhibitory concentration against E. coli DH5α; 96-well plate, 5×10^5 CFU/mL, 37° C., judged after 8 h
# How it was run: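 MIC taken as lowest protein level with no bacterial growth, tracked by A600 every 30 min during 37 °C, 175 rpm culture. Two-fold protein series 50-12.5 μg/mL final, triplicate wells, against 5×10^5 CFU/mL of LB-washed mid-log cells.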
# E. coli BL21 = test: MIC against Gram-negative bacteria: E. coli BL21
# How it was run: (§1)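 Broth microdilution, LB medium, final inoculum 5×10^5 CFU/mL from McFarland 0.5 cultures. Recombinant human EGF domain proteins tested in two-fold steps, n=3. MIC: lowest concentration, no growth.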
# Pseudomonas aeruginosa = test: MIC against Gram-negative bacteria: Pseudomonas aeruginosa
# How it was run: as §1
# Klebsiella pneumonia = test: MIC against Gram-negative bacteria: Klebsiella pneumonia
# How it was run: as §1
# Enterobacter cloacae = test: MIC against Gram-negative bacteria: Enterobacter cloacae
# How it was run: as §1
# Aeromonas hydrophila = test: MIC against Gram-negative bacteria: Aeromonas hydrophila
# How it was run: as §1
# Citrobacter diversus = test: MIC against Gram-negative bacteria: Citrobacter diversus
# How it was run: as §1
# Moraxella catarrhalis = test: MIC against Gram-negative bacteria: Moraxella catarrhalis
# How it was run: as §1
# Proteus mirabilis = test: MIC against Gram-negative bacteria: Proteus mirabilis
# How it was run: as §1
# Proteus vulgaris = test: MIC against Gram-negative bacteria: Proteus vulgaris
# How it was run: as §1
# Serratia marcescens = test: MIC against Gram-negative bacteria: Serratia marcescens
# How it was run: as §1
# [1] = E. coli BL21, 10 h cultivation at 37° C., 5×10^5 CFU/mL
# [2] = P. aeruginosa, 10 h cultivation at 37° C., 5×10^5 CFU/mL
# [3] = K. pneumonia, 10 h cultivation at 37° C., 5×10^5 CFU/mL
# [4] = E. cloacae, 10 h cultivation at 37° C., 5×10^5 CFU/mL
# [5] = A. hydrophila, 10 h cultivation at 37° C., 5×10^5 CFU/mL
# [6] = C. diversus, 10 h cultivation at 37° C., 5×10^5 CFU/mL
# [7] = M. catarrhalis, 10 h cultivation at 37° C., 5×10^5 CFU/mL
# [8] = P. mirabilis, 10 h cultivation at 37° C., 5×10^5 CFU/mL
# [9] = P. vulgaris, 10 h cultivation at 37° C., 5×10^5 CFU/mL
# [10] = S. marcescens, 10 h cultivation at 37° C., 5×10^5 CFU/mL
# [11] = 96-well plate, 5×10^5 CFU/mL, 37° C., 10 h
# [12] = E. coli BL21, 96-well plate, 5×10^5 CFU/mL, 37° C., 10 h
# [13] = Pseudomonas aeruginosa, 96-well plate, 5×10^5 CFU/mL, 37° C., 10 h
# [14] = Klebsiella pneumonia, 96-well plate, 5×10^5 CFU/mL, 37° C., 10 h
# [15] = Enterobacter cloacae, 96-well plate, 5×10^5 CFU/mL, 37° C., 10 h
# [16] = Aeromonas hydrophila, 96-well plate, 5×10^5 CFU/mL, 37° C., 10 h
# [17] = Citrobacter diversus, 96-well plate, 5×10^5 CFU/mL, 37° C., 10 h
# [18] = Moraxella catarrhalis, 96-well plate, 5×10^5 CFU/mL, 37° C., 10 h
# [19] = Proteus mirabilis, 96-well plate, 5×10^5 CFU/mL, 37° C., 10 h
# [20] = Proteus vulgaris, 96-well plate, 5×10^5 CFU/mL, 37° C., 10 h
# [21] = Serratia marcescens, 96-well plate, 5×10^5 CFU/mL, 37° C., 10 h
substance,measurement,setting,value
PRT834 (DCADSPCCQQVCTNNPGGYECGCYAGYRLSADGCGCE; listed as Homo sapiens),MIC,E. coli DH5α,50 µg/mL
same,MIC (μg/mL) E. coli BL21,E. coli BL21; [1],25 µg/mL
same,MIC (μg/mL) P. aeruginosa,Pseudomonas aeruginosa; [2],12.5 µg/mL
same,MIC (μg/mL) K. pneumonia,Klebsiella pneumonia; [3],25 µg/mL
same,MIC (μg/mL) E. cloacae,Enterobacter cloacae; [4],50 µg/mL
same,MIC (μg/mL) A. hydrophila,Aeromonas hydrophila; [5],25 µg/mL
same,MIC (μg/mL) C. diversus,Citrobacter diversus; [6],12.5 µg/mL
same,MIC (μg/mL) M. catarrhalis,Moraxella catarrhalis; [7],25 µg/mL
same,MIC (μg/mL) P. mirabilis,Proteus mirabilis; [8],50 µg/mL
same,MIC (μg/mL) P. vulgaris,Proteus vulgaris; [9],12.5 µg/mL
same,MIC (μg/mL) S. marcescens,Serratia marcescens; [10],25 µg/mL
PRT257 (CTDGHRGGCSEHANCLSTGLNTRRCECHAGYVGDGLQC; listed as Homo sapiens),MIC,E. coli DH5α,12.5 µg/mL
same,MIC (μg/mL) E. coli BL21,E. coli BL21; [1],25 µg/mL
same,MIC (μg/mL) P. aeruginosa,Pseudomonas aeruginosa; [2],12.5 µg/mL
same,MIC (μg/mL) K. pneumonia,Klebsiella pneumonia; [3],25 µg/mL
same,MIC (μg/mL) E. cloacae,Enterobacter cloacae; [4],12.5 µg/mL
same,MIC (μg/mL) A. hydrophila,Aeromonas hydrophila; [5],25 µg/mL
same,MIC (μg/mL) C. diversus,Citrobacter diversus; [6],12.5 µg/mL
same,MIC (μg/mL) M. catarrhalis,Moraxella catarrhalis; [7],25 µg/mL
same,MIC (μg/mL) P. mirabilis,Proteus mirabilis; [8],12.5 µg/mL
same,MIC (μg/mL) P. vulgaris,Proteus vulgaris; [9],12.5 µg/mL
same,MIC (μg/mL) S. marcescens,Serratia marcescens; [10],12.5 µg/mL
PRT312 (DNNECTSDINLCGSKGICQNTPGSFTCECQRGFSLDQTGSSCE; listed as Homo sapiens),MIC,E. coli DH5α,50 µg/mL
same,MIC,E. coli BL21; [1],12.5 µg/mL
same,MIC,Pseudomonas aeruginosa; [2],50 µg/mL
same,MIC,Klebsiella pneumonia; [3],25 µg/mL
same,MIC,Enterobacter cloacae; [4],12.5 µg/mL
same,MIC,Aeromonas hydrophila; [5],25 µg/mL
same,MIC,Citrobacter diversus; [6],50 µg/mL
same,MIC,Moraxella catarrhalis; [7],25 µg/mL
same,MIC,Proteus mirabilis; [8],12.5 µg/mL
same,MIC,Proteus vulgaris; [9],25 µg/mL
same,MIC,Serratia marcescens; [10],50 µg/mL
PRT452 (DIDECTEMPFVCSQKCENVIGSYICKCAPGYLREPDGKTC; listed as Homo sapiens),MIC,E. coli DH5α,12.5 µg/mL
same,MIC against E. coli BL21,E. coli BL21; [11],12.5 µg/mL
same,MIC against P. aeruginosa,Pseudomonas aeruginosa; [11],12.5 µg/mL
same,MIC against K. pneumonia,Klebsiella pneumonia; [11],12.5 µg/mL
same,MIC against E. cloacae,Enterobacter cloacae; [11],50 µg/mL
same,MIC against A. hydrophila,Aeromonas hydrophila; [11],12.5 µg/mL
same,MIC against C. diversus,Citrobacter diversus; [11],50 µg/mL
same,MIC against M. catarrhalis,Moraxella catarrhalis; [11],25 µg/mL
same,MIC against P. mirabilis,Proteus mirabilis; [11],12.5 µg/mL
same,MIC against P. vulgaris,Proteus vulgaris; [11],25 µg/mL
same,MIC against S. marcescens,Serratia marcescens; [11],50 µg/mL
PRT933 (HRDPCEKNRCQNGGTCVAQAMLGKATCRCASGFTGEDCQ; listed as Homo sapiens),MIC,E. coli DH5α,12.5 µg/mL
same,MIC,"E. coli BL21; E. coli BL21, 10 h cultivation at 37° C.",25 µg/mL
same,MIC,"Pseudomonas aeruginosa; P. aeruginosa, 10 h cultivation at 37° C.",12.5 µg/mL
same,MIC,"Klebsiella pneumonia; K. pneumonia, 10 h cultivation at 37° C.",50 µg/mL
same,MIC,"Enterobacter cloacae; E. cloacae, 10 h cultivation at 37° C.",25 µg/mL
same,MIC,"Aeromonas hydrophila; A. hydrophila, 10 h cultivation at 37° C.",12.5 µg/mL
same,MIC,"Citrobacter diversus; C. diversus, 10 h cultivation at 37° C.",25 µg/mL
same,MIC,"Moraxella catarrhalis; M. catarrhalis, 10 h cultivation at 37° C.",50 µg/mL
same,MIC,"Proteus mirabilis; P. mirabilis, 10 h cultivation at 37° C.",25 µg/mL
same,MIC,"Proteus vulgaris; P. vulgaris, 10 h cultivation at 37° C.",12.5 µg/mL
same,MIC,"Serratia marcescens; S. marcescens, 10 h cultivation at 37° C.",50 µg/mL
PRT24 (ELDLCYSNPCRNGGACARREGGYTCVCRPRFTGEDCE; listed as Homo sapiens),MIC,E. coli DH5α,12.5 µg/mL
same,MIC (μg/mL) E. coli BL21,E. coli BL21; [12],25 µg/mL
same,MIC (μg/mL) P. aeruginosa,Pseudomonas aeruginosa; [13],12.5 µg/mL
same,MIC (μg/mL) K. pneumonia,Klebsiella pneumonia; [14],25 µg/mL
same,MIC (μg/mL) E. cloacae,Enterobacter cloacae; [15],12.5 µg/mL
same,MIC (μg/mL) A. hydrophila,Aeromonas hydrophila; [16],12.5 µg/mL
same,MIC (μg/mL) C. diversus,Citrobacter diversus; [17],25 µg/mL
same,MIC (μg/mL) M. catarrhalis,Moraxella catarrhalis; [18],12.5 µg/mL
same,MIC (μg/mL) P. mirabilis,Proteus mirabilis; [19],25 µg/mL
same,MIC (μg/mL) P. vulgaris,Proteus vulgaris; [20],12.5 µg/mL
same,MIC (μg/mL) S. marcescens,Serratia marcescens; [21],25 µg/mL
PRT1319 (SMGDCGPTGLAQHCHLHARCVSQEGVARCRCLDGFEGDGFS; listed as Homo sapiens),MIC,E. coli DH5α,12.5 µg/mL
same,MIC against E. coli BL21,E. coli BL21; [12],50 µg/mL
same,MIC against P. aeruginosa,Pseudomonas aeruginosa; [13],12.5 µg/mL
same,MIC against K. pneumonia,Klebsiella pneumonia; [14],25 µg/mL
same,MIC against E. cloacae,Enterobacter cloacae; [15],25 µg/mL
same,MIC against A. hydrophila,Aeromonas hydrophila; [16],25 µg/mL
same,MIC against C. diversus,Citrobacter diversus; [17],12.5 µg/mL
same,MIC against M. catarrhalis,Moraxella catarrhalis; [18],25 µg/mL
same,MIC against P. mirabilis,Proteus mirabilis; [19],25 µg/mL
same,MIC against P. vulgaris,Proteus vulgaris; [20],12.5 µg/mL
same,MIC against S. marcescens,Serratia marcescens; [21],12.5 µg/mL
PRT1327 (EINPCLENHGGCDKNAECTQTGPNQAACNCLPAYTGDGKVCT; listed as Homo sapiens),MIC,E. coli DH5α,25 µg/mL
same,MIC against E. coli BL21,E. coli BL21; [12],12.5 µg/mL
same,MIC against P. aeruginosa,Pseudomonas aeruginosa; [13],50 µg/mL
same,MIC against K. pneumonia,Klebsiella pneumonia; [14],12.5 µg/mL
same,MIC against E. cloacae,Enterobacter cloacae; [15],50 µg/mL
same,MIC against A. hydrophila,Aeromonas hydrophila; [16],12.5 µg/mL
same,MIC against C. diversus,Citrobacter diversus; [17],12.5 µg/mL
same,MIC against M. catarrhalis,Moraxella catarrhalis; [18],12.5 µg/mL
same,MIC against P. mirabilis,Proteus mirabilis; [19],12.5 µg/mL
same,MIC against P. vulgaris,Proteus vulgaris; [20],12.5 µg/mL
same,MIC against S. marcescens,Serratia marcescens; [21],25 µg/mL
PRT503 (CACPLTIASNNFSPTCHLNDGDEVVCDWCAPGYSGAWCERCADGYYGNPTVPGESCVP; listed as Homo sapiens),MIC,E. coli DH5α,12.5 µg/mL
same,MIC against E. coli BL21,E. coli BL21; [11],25 µg/mL
same,MIC against P. aeruginosa,Pseudomonas aeruginosa; [11],50 µg/mL
same,MIC against K. pneumonia,Klebsiella pneumonia; [11],25 µg/mL
same,MIC against E. cloacae,Enterobacter cloacae; [11],12.5 µg/mL
same,MIC against A. hydrophila,Aeromonas hydrophila; [11],25 µg/mL
same,MIC against C. diversus,Citrobacter diversus; [11],50 µg/mL
same,MIC against M. catarrhalis,Moraxella catarrhalis; [11],12.5 µg/mL
same,MIC against P. mirabilis,Proteus mirabilis; [11],50 µg/mL
same,MIC against P. vulgaris,Proteus vulgaris; [11],12.5 µg/mL
same,MIC against S. marcescens,Serratia marcescens; [11],50 µg/mL
PRT1328 (LINVCLTKNGGCSEFAICNHTGQVERTCTCKPNYIGDGFT; listed as Homo sapiens),MIC,E. coli DH5α,12.5 µg/mL
same,MIC against E. coli BL21,E. coli BL21; [12],12.5 µg/mL
same,MIC against P. aeruginosa,Pseudomonas aeruginosa; [13],50 µg/mL
same,MIC against K. pneumonia,Klebsiella pneumonia; [14],12.5 µg/mL
same,MIC against E. cloacae,Enterobacter cloacae; [15],50 µg/mL
same,MIC against A. hydrophila,Aeromonas hydrophila; [16],25 µg/mL
same,MIC against C. diversus,Citrobacter diversus; [17],12.5 µg/mL
same,MIC against M. catarrhalis,Moraxella catarrhalis; [18],25 µg/mL
same,MIC against P. mirabilis,Proteus mirabilis; [19],50 µg/mL
same,MIC against P. vulgaris,Proteus vulgaris; [20],12.5 µg/mL
same,MIC against S. marcescens,Serratia marcescens; [21],50 µg/mL
PRT853 (DLNECGLKPRPCKHRCMNTYGSYKCYCLNGYMLMPDGSCS; listed as Homo sapiens),MIC,E. coli DH5α,25 µg/mL
same,MIC (μg/mL) E. coli BL21,E. coli BL21; [1],12.5 µg/mL
same,MIC (μg/mL) P. aeruginosa,Pseudomonas aeruginosa; [2],25 µg/mL
same,MIC (μg/mL) K. pneumonia,Klebsiella pneumonia; [3],50 µg/mL
same,MIC (μg/mL) E. cloacae,Enterobacter cloacae; [4],25 µg/mL
same,MIC (μg/mL) A. hydrophila,Aeromonas hydrophila; [5],12.5 µg/mL
same,MIC (μg/mL) C. diversus,Citrobacter diversus; [6],25 µg/mL
same,MIC (μg/mL) M. catarrhalis,Moraxella catarrhalis; [7],50 µg/mL
same,MIC (μg/mL) P. mirabilis,Proteus mirabilis; [8],25 µg/mL
same,MIC (μg/mL) P. vulgaris,Proteus vulgaris; [9],25 µg/mL
same,MIC (μg/mL) S. marcescens,Serratia marcescens; [10],12.5 µg/mL
